The values below come from BindingDB's records for PubMed 8301582 (Neuroscience Research Centre, 1994).

SMILES strings stand for the structures.

The target in this assay is D(3) dopamine receptor (Homo sapiens, UniProt P35462).
Sequence of D(3) dopamine receptor (P35462 as listed by the source): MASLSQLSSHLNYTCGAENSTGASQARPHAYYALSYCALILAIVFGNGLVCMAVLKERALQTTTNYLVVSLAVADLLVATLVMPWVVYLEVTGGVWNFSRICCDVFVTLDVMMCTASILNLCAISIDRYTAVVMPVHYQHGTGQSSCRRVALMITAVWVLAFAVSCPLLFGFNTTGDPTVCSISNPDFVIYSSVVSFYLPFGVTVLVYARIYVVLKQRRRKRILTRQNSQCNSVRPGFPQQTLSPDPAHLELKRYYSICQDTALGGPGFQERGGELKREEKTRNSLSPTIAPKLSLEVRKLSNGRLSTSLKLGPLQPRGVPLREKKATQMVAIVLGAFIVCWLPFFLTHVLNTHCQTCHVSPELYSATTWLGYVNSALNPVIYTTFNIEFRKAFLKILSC
In the case of `CCCN(CCC)C1CCc2cc(O)c(O)cc2C1` (racemic) [CAS_62421-17-4], the Ki (in general, a dissociation constant, usually derived from enzyme kinetics or from competition with a known ligand) was 0.68 nM.

As to `COc1ccc2c(c1O)-c1c3c(cc4c1[C@H](C2)N(C)CC4)OCO3` [(S)-11-methoxy-7-methyl-6,7,7a,8-tetrahydro-5H-benzo[g][1,3]dioxolo[4',5':4,5]benzo[1,2,3-de]quinolin-12-ol], the inhibitory constant (Ki) was found to be 5200 nM. `Cc1cc2c(cc1C)CC(N)CC2` (configuration not stated) [ADTN DIMETHYL 5,6] came in with an inhibition constant (Ki) of 17 nM. `CC(C)C[C@H]1C(=O)N2CCC[C@H]2[C@]2(O)O[C@](NC(=O)[C@@H]3C=C4c5cccc6[nH]c(Br)c(c56)C[C@H]4N(C)C3)(C(C)C)C(=O)N12` [Bromocriptine+ (GTP+)]: the inhibition constant Ki is 2.1 nM. In turn, `CCCN1CCc2cc(F)cc3c2C1Cc1ccc(O)c(O)c1-3` (configuration not stated) [CAS_18426-20-5] gave a Ki of 0.21 nM. `NC1CCc2cc(OC(=O)c3ccccc3)c(OC(=O)c3ccccc3)cc2C1` (configuration not stated) [CAS_129816] gave an inhibitory constant (Ki) of 160 nM. In the case of `CCCN(CCC)C1C=Cc2c(OC)cccc2C1C` (configuration not stated) [CAS_5311190], the affinity corresponds to a Ki of 4.9 nM.
